From PubChem BioAssay AID449744 (Sanford-Burnham Center for Chemical Genomics, 2010) come the findings set out here.

The assay has as its target Eukaryotic translation initiation factor 4H (Homo sapiens) (UniProt Q15056). The assay can be described thus: blockers of eIF4H-RNA cap-proximal interaction – biochemical, UV crosslinking, autoradiography, orthogonal assay for translation initiation inhibitor project, SAR follow-up (AID 449744). Conditions: UV crosslinking eIF4H:capped mRNA.

Activity calls are given as the source filed them.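 The calls were made as follows: active = less UV crosslinking of translation factor eIF4H to capped RNA at 100 µM than solvent-only control; inactive = the rest.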

With `CCOC(=O)c1ccc2c(c1)N(C)C(=O)c1ccccc1S2`, the result was inactive. With `CCc1nnc(NC(=O)CSc2ccc(-c3ccco3)nn2)s1`, the outcome was inactive. On to `CCN1CCN(S(=O)(=O)c2ccc(Cl)c(C(=O)Nc3ccc(C(=O)N(CC)CC)cc3)c2)CC1`, for which the result was inactive. In the case of `CCOC(=O)N1CCC(NC(=O)c2cccc3c2C(=O)N(c2ccc(OC)cc2)C3)CC1`, the result was inactive. With `O=C(COc1ccc(C=NNC(=O)c2ccc(O)cc2)cc1)Nc1ccc([N+](=O)[O-])cc1`, the outcome was inactive. In the case of `O=C(Nc1cccc2ncccc12)c1ccccc1Cl` it was “inactive”; in that of `O=C(Nc1ccccc1)C1CCN(C(=O)c2cccs2)CC1`, “inactive”. As for `COC(=O)c1c(Sc2ccccc2)c2ccccc2n1C`, the outcome was inactive. In the case of `COc1ccc(N2Cc3cccc(C(=O)NC(C)CCc4ccco4)c3C2=O)cc1` (configuration not stated) it was “inactive”; in that of `O=C(Nc1cccc2ncccc12)c1ccc(Cl)cc1`, “inactive”.

Turning to `COc1cc(C=NNC(=O)c2ccccc2O)ccc1OCC(=O)Nc1ccccc1`, the outcome was inactive.

As to `CCn1c(=O)n(CC)c2cc(NC(=O)C(C)c3ccccc3)c(Br)cc21` (configuration not stated), the result was inactive. As for `CC(C)NC(=O)C(C)N1CCN(S(=O)(=O)c2ccc3ccccc3c2)CC1` (configuration not stated), the result was inactive. On to `COc1cc(/C=N/NC(=O)c2ccccc2)ccc1OCC(=O)Nc1ccc([N+](=O)[O-])cc1`, for which the result was inactive. Regarding `COc1ccc(N2Cc3cccc(C(=O)N4CCN(C(=O)c5ccco5)CC4)c3C2=O)cc1`, the result was inactive.

Turning to `Cc1ccc(OC(C)C(=O)Nc2ccc3c(c2)n(C)c(=O)n3C)c(C)c1` (configuration not stated), the result was inactive. For the compound `CC(C)c1ccc(OC(=O)c2cccc(S(=O)(=O)N3CCN(C)CC3)c2)cc1`, the outcome was inactive. On to `CCOC(=O)c1ccc2c(c1)N(CC)C(=O)c1ccccc1S2`, for which the outcome was inactive. On to `COc1cc([N+](=O)[O-])ccc1NC(=O)COC(=O)c1ccc2c(c1)NC(=O)CS2`, for which the result was inactive. `Cc1ccc(NC(=O)C2CCN(C(=O)c3cccs3)CC2)c(C)c1`: the outcome was inactive. As to `Cc1ccc(NC(=O)CN2C(=O)N/C(=C/c3ccccc3OCc3cccc(C(=O)O)c3)C2=O)cc1`, the result was inactive. In the case of `COc1cc([N+](=O)[O-])ccc1NC(=O)COC(=O)c1ccc(NC(N)=O)cc1`, the outcome was inactive.
